Assay results taken from patent US11529344B2, “EZH2 inhibitor combination therapies” (Pfizer Inc., priority 2017, dated 2022).

System: DMS114 SCLC xenograft
Text: • (i) Compound Formulation: Compound 1 was formulated as a wet-milled nanosuspension (24 hr milling in 2.5% w/v polyvinyl pyrrolidone (PVP), 0.5% w/v Macrogol 15 Hydroxystearate (Kolliphor HS15) aqueous, with <1 μm particle-size distribution (PSD; ˜650 nm median diameter (d50)) for oral gavage administration. • (ii) Cell Implant, Compound Dosing and Tissue Collection: Immune deficient female mice with a severe combined immunodeficiency (SCID) mutation in a non-obese diabetic background (NOD SCID; 6 to 8 week old; NOD.CB17-Prkdcscid/NCrCrl from Charles River Laboratories) received a subcutaneous (SC) implant of 7.5×10^6 DMS114 cells (in 1:1 matrigel (Trevigen, Cultrex BME Path Clear®, Lot #: 30625F14), total volume 200 μl) into the right flank. Tumor volume and body weight were measured twice a week. On Day 20 post implant, 64 mice were randomized, based on tumor size at a geometric mean (geomean) of about 160 mm^3, into 6 groups corresponding to dose (Table 1). Compounds were administered at 10 ml/kg by oral gavage (Compound 1; BID ( 7/17 hours apart)) or intraperitoneal injection (cisplatin), respectively. The cisplatin dosing schedule was once a week for 3 weeks (Q7Dx3) and started 7 days after the randomization and treatment initiation with Compound 1.
On Day 55, study groups 1, 2, 3 and 4 were terminated (Table 1). Tumor (snap frozen) samples were collected at 4 hours post last dose for pharmacodynamic (PD) analysis. […] Tumor samples from groups 5 and 6 were collected 3 hours post last dose depending on available tumor sizes. All procedures performed on these animals were in accordance with regulations and established guidelines and were reviewed and approved by Pfizer's Institutional Animal Care and Use Committee. • (iii) Data Interpretation: For each experiment, calculations were performed and graphs created in Microsoft Excel and GraphPad Prism version 7.02 respectively. The tumor volume was calculated as 0.5×length×width^2. Tumor growth inhibition (TGI) was determined by the formula: % TGI=[1−(Vtx−Vt0/Vcx−Vc0)]×100, where Vc, Vt are the geometric means of control and treated groups. X=day X on study and 0=initial day of dosing. ELISA Assay: • (i) Histone Extraction: Histone extraction was performed using the EpiQuick Histone Extraction Kit (Epigentek OP0006). Frozen tumor samples were cut and homogenized using cold mortar and pestle on dry-ice. The homogenized mixture was transferred to a 1.5 mL tube in 1× Pre-Lysis Buffer (200 mg/mL) containing phenylmethylsulfonyl fluoride (PMSF). Samples were gently mixed, incubated on ice for 15 minutes, and spun down at 3,000 rpm for 5 minutes at 4° C. The tissue pellet was resuspended in 3 volumes (approximately 200 μL per 100 mg of tissue) of lysis buffer from the Histone Extraction Kit, incubated on ice for 30 minutes, and spun down at 12,000 rpm for 5 minutes at 4° C. Balance-DTT buffer was prepared by adding DTT Solution to balance buffer at a 1:500 ratio. The supernatant (containing acid soluble proteins) was transferred to a new 1.5 mL tube and 0.3 volumes of Balance-dithiothreitol (DTT) buffer from the Histone Extraction Kit were immediately added to each sample. The tumor lysate was briefly sonicated for 4 cycles (30 seconds on and 30 seconds off) at high intensity using the Bioruptor Plus (Diagenode #601020001). Extracts were aliquoted and stored at −20° C. (short term) or −80° C. (long term). Protein concentration was quantified using the Coomassie Plus (Bradford) Assay Kit (Thermo #23236). • (ii) H3K27Me3 and Me2 ELISA Assay: Histone extracts were diluted to a final concentration of 400 ng (or 800 ng) in 100 μL of coating buffer (phosphate buffered saline (PBS) containing 0.05% bovine serum albumin (BSA)).

N.N.[Cl][Pt][Cl] [cisplatin, reference compound]
TGI by Day 55 (Compound 1 100 mg/kg BID PO, cisplatin 4 mg/kg IP Q7Dx3, alone or combined): 51% | tumors regressed or progressed compared to the starting tumor burden (Day 55, Compound 1 100 mg/kg BID, cisplatin 4 mg/kg Q7Dx3): all tumors had progressed | tumor regression sustained after cisplatin discontinuation (post Day 55, Compound 1 maintenance dosing in combination arm, no further treatment in cisplatin arm): progressed | survival benefit, Log-rank test (Mantel-Cox) (survival cut-off at 500 mm^3 tumor burden): did not reach the P<0.05 significance level | median survival (survival cut-off at 500 mm^3 tumor burden, Compound 1 100 mg/kg BID, cisplatin 4 mg/kg Q7Dx3): 37.5 days
